The values below are quoted from earlier work in patent US11083740B2, “Cancer therapy” (NED Biosystems, Inc., priority 2013, dated 2021).

The conditions of data set [1]: in vivo.
The conditions of data set [2]: in vivo. This is another data set of the same source.
For data set [3], the system named is HUVECs. The note with it: partially AMPK-dependent.
In data set [4] the test system is cultured bovine granulosa cells. Conditions: AMPK-dependent mechanism.
The subject of data set [5] is hormone refractory PC-3 prostate cancer cells. The note with it: PC-3 cells.
For data set [6] the following is noted: in vivo. The source holds these as a separate data set.
For data set [7], the system named is pancreatic carcinoma cells.
For data set [8], the system named is HUVECs.

For `CC(C)[C@@H](CC[C@@H](C)[C@H]1CC[C@H]2[C@@H]3[C@H](O)C[C@H]4C[C@@H](NCCCNCCCCN)CC[C@]4(C)[C@H]3CC[C@]12C)OS(=O)(=O)O` [Squalamine], the oral bioavailability entry in data set [1] is reported as “does not have high oral bioavailability”. The “maximum tolerated dose (MTD)” value in data set [2] was 300 mg/m2/day. In the case of “[Met(5)]-enkephalin [Opioid Growth Factor [Met(5)]-enkephalin]”, under “50 μg/kg injected subcutaneously twice daily”, the “toxicity of metronomic dosing” value is “no toxicity”. The maximum tolerated dose (30-minute intravenous infusion once or twice weekly) is 0.25 mg/kg.

For `CN(C)C(=N)N=C(N)N` [Metformin], the “proliferation, migration, and MMP-2 and -9 expression” value with HUVECs [3] is given as “strongly inhibited”. The “response to IGF1” value in data set [4] is “reducing cell growth, protein synthesis, MAPK3/1, and P90RSK phosphorylation”. As to `O=c1c(-c2ccc(O)cc2)coc2cc(O)cc(O)c12` [Genistein], the IGF-1-stimulated cell growth result in data set [5] is reported as “significant inhibition”. For `O=C(O)CCCCC1CCSS1` (stereo not drawn) [Alpha-Lipoic Acid, 1,2-dithiolane-3-pentanoic acid], the “bioavailability when taken with a meal” value in data set [6] is listed as “decreases”. As to `COc1ccc2[nH]cc(CCNC(C)=O)c2c1` [Melatonin, N-acetyl-5-methoxytryptamine], the “VEGF protein secreted and produced” value in data set [7] was “decreases”. For the same molecule, in the data set with HUVECs [8], the “cell proliferation and migration” value is “inhibits”.
